7 compounds from PubChem BioAssay (NCI) can be followed below.

Test systems include HOP-62 NSCLC; SF-295 CNS; MALME-3M melanoma; MCF7 breast; LOX IMVI melanoma; ACHN renal; K-562 leukemia; KM12 colon; HOP-92 NSCLC; NCI-H23 lung.
Common to all, as to experiment: growth of human tumour cells (NCI), 48 h

Values joined by “and” are separate entries in the source; they are usually repeats but may differ in a detail not shown here. Equal entries are not always repeated.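 96-well plates; 48 h exposure; 5 concentrations. Endpoints by linear interpolation between flanking doses. Not reached: highest tested concentration assigned. Abbreviation: GI50, concentration required for 50% inhibition of growth. Definition used: TGI = concentration required for complete inhibition of growth.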

Consider `Cc1ccc(S(=O)(=O)Oc2ccc3c4c(c(=O)oc3c2)CCCCC4)cc1`, for which the GI50 in the experiment with HOP-62 NSCLC is more than 100 µM; in the experiment with SF-295 CNS, more than 100 µM; with MALME-3M melanoma, more than 100 µM; with MCF7 breast, 9.16 µM; with LOX IMVI melanoma, more than 100 µM; in the experiment with ACHN renal it was more than 100 µM. Moreover, the GI50 was 3.51 µM with K-562 leukemia, 7.16 µM in the experiment on KM12 colon, 9.26 µM with HOP-92 NSCLC and 8 µM in the experiment with NCI-H23 lung. The TGI with HOP-62 NSCLC, in the experiment on SF-295 CNS, with MALME-3M melanoma, with MCF7 breast, with LOX IMVI melanoma and in the experiment on ACHN renal was more than 100 µM throughout. In addition, the TGI in the experiment with K-562 leukemia, in the experiment with KM12 colon, in the experiment on HOP-92 NSCLC and with NCI-H23 lung was more than 100 µM throughout.
Regarding `COc1ccc(C2NCCc3c2[nH]c2ccccc32)cc1CN1CCN(c2ccc(F)cc2)CC1` (stereo unspecified), the GI50 with HOP-62 NSCLC was 1.81 µM; with SF-295 CNS, 1.75 µM; in the experiment with MALME-3M melanoma, 1.88 µM; in the experiment with MCF7 breast, 1.66 µM; in the experiment with LOX IMVI melanoma, 1.64 µM; with ACHN renal, 1.87 µM. In addition, the GI50 was 1.73 µM with K-562 leukemia, 1.86 µM in the experiment with KM12 colon, 2 µM in the experiment on HOP-92 NSCLC and 4.77 µM in the experiment with NCI-H23 lung. The TGI with HOP-62 NSCLC worked out at 3.82 µM; in the experiment on SF-295 CNS it was 3.4 µM; in the experiment with MALME-3M melanoma, 3.49 µM; with MCF7 breast, 3.27 µM; with LOX IMVI melanoma, 3.09 µM; with ACHN renal it was 3.69 µM. Further, the TGI in the experiment on K-562 leukemia stood at 4.09 µM; in the experiment on KM12 colon, 3.33 µM; in the experiment on HOP-92 NSCLC, 5.91 µM; in the experiment on NCI-H23 lung it was 17 µM.
In the case of `COc1cc2c3c(n(CCN)c(=O)c2cc1OC)-c1cc2c(cc1C3=O)OCO2`, the GI50 is 0.122 µM in the experiment on HOP-62 NSCLC; less than 0.0352 µM in the experiment with SF-295 CNS; 0.24 µM with MALME-3M melanoma; 0.0832 µM in the experiment on MCF7 breast; 0.235 µM in the experiment with LOX IMVI melanoma; 0.275 µM in the experiment on ACHN renal. The GI50 was 0.0969 µM in the experiment with K-562 leukemia, 0.235 µM in the experiment on KM12 colon, 0.82 µM in the experiment with HOP-92 NSCLC and 0.0788 µM in the experiment with NCI-H23 lung. In addition, the TGI is 0.774 µM with HOP-62 NSCLC; 2.09 µM in the experiment with SF-295 CNS; 6.12 µM in the experiment with MALME-3M melanoma; 2.98 µM with MCF7 breast; more than 100 µM in the experiment with K-562 leukemia; 1.51 µM in the experiment with KM12 colon. Moreover, the TGI stood at 2.62 µM in the experiment on HOP-92 NSCLC and 1.06 µM with NCI-H23 lung.
As to `Nc1nc2ccc([C@@H]3Nc4ccc5[nH]ncc5c4[C@H]4[C@H]5CCC(C5)[C@H]43)cc2s1`, the GI50 was 1.14 µM in the experiment on HOP-62 NSCLC; 0.648 µM in the experiment on SF-295 CNS; 0.968 µM with MALME-3M melanoma; 0.412 µM with MCF7 breast; 0.935 µM in the experiment with LOX IMVI melanoma; 1.37 µM in the experiment with ACHN renal. Besides, the GI50 in the experiment on K-562 leukemia was 0.328 µM; in the experiment with KM12 colon, 0.838 µM; in the experiment on HOP-92 NSCLC it was 1.67 µM; in the experiment on NCI-H23 lung, 1.58 µM. Further, the TGI in the experiment on HOP-62 NSCLC was found to be 2.9 µM; in the experiment with SF-295 CNS, 5.95 µM; in the experiment on MALME-3M melanoma, 2.6 µM; with MCF7 breast, 1.73 µM; with LOX IMVI melanoma, 2.54 µM; in the experiment with ACHN renal it was 9.57 µM. Moreover, the TGI stood at 5.87 µM with K-562 leukemia, 2.3 µM in the experiment with KM12 colon, 11.8 µM in the experiment with HOP-92 NSCLC and 3.72 µM with NCI-H23 lung.
On to `Cc1cc(S(=O)(=O)Nc2nc3ccsc3c(=O)n2Cc2ccco2)c(S)cc1Cl`, for which the GI50 is more than 100 µM in the experiment with HOP-62 NSCLC; 62.8 µM in the experiment with SF-295 CNS; more than 100 µM in the experiment with MALME-3M melanoma; more than 100 µM in the experiment on MCF7 breast; more than 100 µM in the experiment with LOX IMVI melanoma; more than 100 µM in the experiment with ACHN renal. Further, the GI50 in the experiment on K-562 leukemia was 25.6 µM; with KM12 colon, more than 100 µM; in the experiment with HOP-92 NSCLC, more than 100 µM; in the experiment with NCI-H23 lung, more than 100 µM. For the same compound, the TGI with HOP-62 NSCLC, with SF-295 CNS, in the experiment with MALME-3M melanoma, with MCF7 breast, with LOX IMVI melanoma and in the experiment on ACHN renal was more than 100 µM throughout. In addition, the TGI in the experiment with K-562 leukemia, in the experiment with KM12 colon, in the experiment on HOP-92 NSCLC and with NCI-H23 lung was more than 100 µM in each case.
On to `CN(C)CCNC(=O)c1cccc2cc3ccccc3nc12`, for which the GI50 in the experiment on HOP-62 NSCLC is 0.961 µM; in the experiment with SF-295 CNS, 1.26 µM; in the experiment with MALME-3M melanoma, 1.4 µM; with MCF7 breast it was 0.612 µM; in the experiment with LOX IMVI melanoma, 0.802 µM; with ACHN renal, 0.437 µM. The GI50 in the experiment on K-562 leukemia was 1.88 µM; in the experiment on KM12 colon, 2.07 µM; in the experiment on HOP-92 NSCLC, 1.24 µM; in the experiment with NCI-H23 lung, 1.8 µM. The TGI with HOP-62 NSCLC was determined as 6.68 µM; in the experiment with SF-295 CNS it was 4.62 µM; in the experiment on MALME-3M melanoma it was 3.34 µM; in the experiment on MCF7 breast, 11.4 µM; in the experiment on LOX IMVI melanoma, 3.48 µM; with ACHN renal, 2.85 µM. The TGI in the experiment with K-562 leukemia stood at 18.1 µM; with KM12 colon, 10.2 µM; with HOP-92 NSCLC it was 5.41 µM; in the experiment with NCI-H23 lung, 5.13 µM.
Regarding `CCC(=O)OC1CCn2c1nc1c2C(=O)C(C)=C(N2CC2)C1=O` (stereo unspecified), the GI50 with HOP-62 NSCLC was 0.0189 µM; with SF-295 CNS, 0.0315 µM; in the experiment with MALME-3M melanoma, 0.0307 µM; in the experiment on LOX IMVI melanoma, 0.0311 µM; with ACHN renal, 0.0195 µM; with K-562 leukemia it was 0.128 µM and 0.739 µM. The GI50 was 0.0242 µM in the experiment with KM12 colon, 2.61 µM in the experiment on HOP-92 NSCLC and 0.0235 µM in the experiment with NCI-H23 lung. Also, the TGI was 0.0431 µM and 0.143 µM in the experiment with HOP-62 NSCLC; 1.08 µM and 0.151 µM in the experiment with SF-295 CNS; 0.0961 µM and 0.114 µM in the experiment on MALME-3M melanoma; 0.0569 µM in the experiment with MCF7 breast; 0.0886 µM and 0.243 µM with LOX IMVI melanoma; 0.0491 µM and 0.411 µM with ACHN renal. For the same compound, the TGI is 0.159 µM and 0.363 µM in the experiment on KM12 colon; 7.99 µM and 6.33 µM with HOP-92 NSCLC; 0.0821 µM and 0.0948 µM with NCI-H23 lung.
